Assay: xn = mol fraction of the nth substance listed
Details: 96.7 kPa, Liquid; for mass density: Vibrating tube method; for viscosity: Capillary tube (Ostwald / Ubbelohde) method

CCCCCCn1cc[n+](C)c1.[Cl-] [1-hexyl-3-methylimidazolium chloride] + CN(C)C=O
Details	mass density [kg/m3]	viscosity [mPa·s]
328.15 K, x1 = 0.134	953.45	–
328.15 K, x1 = 0.265	976.43	–
328.15 K, x1 = 0.352	986.25	–
328.15 K, x1 = 0.457	995.78	–
328.15 K, x1 = 0.591	1005.44	–
328.15 K, x1 = 0.764	1014.17	–
328.15 K, x1 = 0.871	1018.25	–
328.15 K, x1 = 1	1021.92	–
333.15 K, x1 = 0.134	949.31	1.544
333.15 K, x1 = 0.265	972.72	4.175
333.15 K, x1 = 0.352	982.75	7.933
333.15 K, x1 = 0.457	992.43	15.17
333.15 K, x1 = 0.591	1002.31	37.41
333.15 K, x1 = 0.764	1011.21	104.75
333.15 K, x1 = 0.871	1015.42	253.05
333.15 K, x1 = 1	1019.13	453.59
338.15 K, x1 = 0.134	945.16	1.426
338.15 K, x1 = 0.265	969.01	3.776
338.15 K, x1 = 0.352	979.34	7.016
338.15 K, x1 = 0.457	989.15	13.04
338.15 K, x1 = 0.591	999.19	30.94
338.15 K, x1 = 0.764	1008.27	82.3
338.15 K, x1 = 0.871	1012.58	190.24
338.15 K, x1 = 1	1016.38	327.52
343.15 K, x1 = 0.134	941	1.328
343.15 K, x1 = 0.265	965.31	3.431
343.15 K, x1 = 0.352	975.92	6.246
343.15 K, x1 = 0.457	985.94	11.3
343.15 K, x1 = 0.591	996.09	25.86
343.15 K, x1 = 0.764	1005.34	65.58
343.15 K, x1 = 0.871	1009.75	143.98
343.15 K, x1 = 1	1013.65	243.04
348.15 K, x1 = 0.134	936.86	1.244
348.15 K, x1 = 0.265	961.62	3.135
348.15 K, x1 = 0.352	972.5	5.564
348.15 K, x1 = 0.457	982.8	9.895
348.15 K, x1 = 0.591	992.99	21.85
348.15 K, x1 = 0.764	1002.41	52.81
348.15 K, x1 = 0.871	1006.93	112.06
348.15 K, x1 = 1	1010.91	183.45
353.15 K, x1 = 0.134	932.7	1.171
353.15 K, x1 = 0.265	957.92	2.875
353.15 K, x1 = 0.352	969.09	5.007
353.15 K, x1 = 0.457	979.67	8.708
353.15 K, x1 = 0.591	989.9	18.59
353.15 K, x1 = 0.764	999.51	43.42
353.15 K, x1 = 0.871	1004.11	88.51
353.15 K, x1 = 1	1008.18	140.06
